Data: ChEMBL document CHEMBL3864159, “Variation of the aryl substituent on the piperazine ring within the 4-(piperazin-1-yl)-2,6-di(pyrrolidin-1-yl)pyrimidine scaffold unveils potent, non-competitive inhibitors of the inflammatory caspases” (Bioorg Med Chem Lett, 2016)
pIC50, pKi: −log10 of the molar value.

Target: T1, Caspase-1 (Homo sapiens, UniProt P29466)
T1 sequence (P29466 whole entry): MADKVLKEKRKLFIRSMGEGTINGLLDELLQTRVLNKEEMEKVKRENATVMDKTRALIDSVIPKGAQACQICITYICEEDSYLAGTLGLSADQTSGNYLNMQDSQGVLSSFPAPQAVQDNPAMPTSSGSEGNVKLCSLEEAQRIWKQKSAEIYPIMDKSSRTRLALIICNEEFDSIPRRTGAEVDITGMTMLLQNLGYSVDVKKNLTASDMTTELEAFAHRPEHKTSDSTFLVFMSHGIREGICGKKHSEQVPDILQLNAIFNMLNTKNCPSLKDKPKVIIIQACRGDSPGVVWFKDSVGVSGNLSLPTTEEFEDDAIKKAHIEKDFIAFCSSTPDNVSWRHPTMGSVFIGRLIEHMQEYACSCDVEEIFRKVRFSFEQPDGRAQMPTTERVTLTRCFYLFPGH
Assay: Inhibition of human recombinant N-terminal His-tagged DTT-activated caspase-1 expressed in Escherichia coli using Ac-WEHD-AMC as substrate preincubated for 30 mins followed by substrate addition by fluorescence assay
Conditions: not given

SMILES | pKi | pIC50
C[C@]12C=CC(=O)C=C1CC[C@@H]1C2=CC[C@]2(C)[C@@H](C(=O)CN3CCN(c4cc(N5CCCC5)nc(N5CCCC5)n4)CC3)CC[C@@H]12 | 7.30 | –
c1cncc(CN2CCN(c3cc(N4CCCC4)nc(N4CCCC4)n3)CC2)c1 | 6.27 | 5.73
FC(F)(F)c1cc(CN2CCN(c3cc(N4CCCC4)nc(N4CCCC4)n3)CC2)cc(C(F)(F)F)c1 | 6.69 | 6.15
O=[N+]([O-])c1ccccc1CN1CCN(c2cc(N3CCCC3)nc(N3CCCC3)n2)CC1 | 6.64 | 6.10
c1c(N2CCCC2)nc(N2CCCC2)nc1N1CCNCC1 | 6.89 | 6.34
c1ccc(CN2CCN(c3cc(N4CCCC4)nc(N4CCCC4)n3)CC2)cc1 | 6.70 | 6.15
COc1cccc(CN2CCN(c3cc(N4CCCC4)nc(N4CCCC4)n3)CC2)c1 | 7.12 | 6.58
COc1cc(CN2CCN(c3cc(N4CCCC4)nc(N4CCCC4)n3)CC2)cc(OC)c1 | 7.31 | 6.76
c1ccc(CCN2CCN(c3cc(N4CCCC4)nc(N4CCCC4)n3)CC2)cc1 | 7.80 | 7.25
c1cc(CN2CCN(c3cc(N4CCCC4)nc(N4CCCC4)n3)CC2)ccn1 | 6.52 | 5.97
FC(F)(F)c1ccc(CN2CCN(c3cc(N4CCCC4)nc(N4CCCC4)n3)CC2)cc1 | 6.74 | 6.19
O=C(c1ccccc1)c1ccc(CN2CCN(c3cc(N4CCCC4)nc(N4CCCC4)n3)CC2)cc1 | 7.23 | 6.69
c1c(N2CCCC2)nc(N2CCCC2)nc1N1CCN(CC2CCCCC2)CC1 | 7.57 | 7.02
O=[N+]([O-])c1ccc(CN2CCN(c3cc(N4CCCC4)nc(N4CCCC4)n3)CC2)cc1 | 6.89 | 6.35

Target: T2, Caspase-5 (Homo sapiens, UniProt P51878)
T2 sequence (P51878 whole entry): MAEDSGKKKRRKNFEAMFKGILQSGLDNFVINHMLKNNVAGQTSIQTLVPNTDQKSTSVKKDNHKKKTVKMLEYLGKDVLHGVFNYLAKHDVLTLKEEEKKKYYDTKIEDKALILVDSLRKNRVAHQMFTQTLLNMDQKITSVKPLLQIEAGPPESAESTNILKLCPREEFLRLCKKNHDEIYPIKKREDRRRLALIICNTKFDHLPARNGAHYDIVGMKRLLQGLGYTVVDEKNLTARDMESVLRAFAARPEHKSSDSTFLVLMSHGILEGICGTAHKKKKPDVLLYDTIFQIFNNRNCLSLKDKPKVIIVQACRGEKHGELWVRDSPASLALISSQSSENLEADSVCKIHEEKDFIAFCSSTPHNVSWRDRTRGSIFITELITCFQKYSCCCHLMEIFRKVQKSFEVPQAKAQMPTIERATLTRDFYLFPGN
Assay: Inhibition of human recombinant DTT-activated caspase-5 expressed in Escherichia coli using Ac-WEHD-AMC as substrate preincubated for 15 mins followed by substrate addition by fluorescence assay
Conditions: not given

SMILES | pIC50
c1cncc(CN2CCN(c3cc(N4CCCC4)nc(N4CCCC4)n3)CC2)c1 | 5.59

Target: T1, Caspase-1
Assay: Inhibition of human recombinant DTT-activated caspase-1 expressed in Escherichia coli using WEHD-AMC as substrate after 30 mins by fluorescence assay
Conditions: read-out: Ki(app)

SMILES | pKi
C[C@]12C=CC(=O)C=C1CC[C@@H]1C2=CC[C@]2(C)[C@@H](C(=O)CN3CCN(c4cc(N5CCCC5)nc(N5CCCC5)n4)CC3)CC[C@@H]12 | 7.30

Target: T2, Caspase-5
Assay: Inhibition of human recombinant DTT-activated caspase-5 expressed in Escherichia coli using Ac-WEHD-AMC as substrate preincubated for 30 mins followed by substrate addition by fluorescence assay
Conditions: not given

SMILES | pIC50 | pKi
C[C@]12C=CC(=O)C=C1CC[C@@H]1C2=CC[C@]2(C)[C@@H](C(=O)CN3CCN(c4cc(N5CCCC5)nc(N5CCCC5)n4)CC3)CC[C@@H]12 | 6.04 | 6.68
c1cncc(CN2CCN(c3cc(N4CCCC4)nc(N4CCCC4)n3)CC2)c1 | 6.60 | 7.23
FC(F)(F)c1cc(CN2CCN(c3cc(N4CCCC4)nc(N4CCCC4)n3)CC2)cc(C(F)(F)F)c1 | 6.68 | 7.32
O=[N+]([O-])c1ccccc1CN1CCN(c2cc(N3CCCC3)nc(N3CCCC3)n2)CC1 | 6.98 | 7.62
c1c(N2CCCC2)nc(N2CCCC2)nc1N1CCNCC1 | 6.69 | 7.33
c1ccc(CN2CCN(c3cc(N4CCCC4)nc(N4CCCC4)n3)CC2)cc1 | 6.75 | 7.39
COc1cccc(CN2CCN(c3cc(N4CCCC4)nc(N4CCCC4)n3)CC2)c1 | 6.32 | 6.95
COc1cc(CN2CCN(c3cc(N4CCCC4)nc(N4CCCC4)n3)CC2)cc(OC)c1 | 6.83 | 7.47
c1ccc(CCN2CCN(c3cc(N4CCCC4)nc(N4CCCC4)n3)CC2)cc1 | 7.15 | 7.80
c1cc(CN2CCN(c3cc(N4CCCC4)nc(N4CCCC4)n3)CC2)ccn1 | 6.84 | 7.47
FC(F)(F)c1ccc(CN2CCN(c3cc(N4CCCC4)nc(N4CCCC4)n3)CC2)cc1 | 6.23 | 6.87
O=C(c1ccccc1)c1ccc(CN2CCN(c3cc(N4CCCC4)nc(N4CCCC4)n3)CC2)cc1 | 6.91 | 7.55
c1c(N2CCCC2)nc(N2CCCC2)nc1N1CCN(CC2CCCCC2)CC1 | 6.60 | 7.23
O=[N+]([O-])c1ccc(CN2CCN(c3cc(N4CCCC4)nc(N4CCCC4)n3)CC2)cc1 | 6.37 | 7.00

Target: T3, Caspase-4 (Homo sapiens, UniProt P49662)
T3 sequence (P49662 whole entry): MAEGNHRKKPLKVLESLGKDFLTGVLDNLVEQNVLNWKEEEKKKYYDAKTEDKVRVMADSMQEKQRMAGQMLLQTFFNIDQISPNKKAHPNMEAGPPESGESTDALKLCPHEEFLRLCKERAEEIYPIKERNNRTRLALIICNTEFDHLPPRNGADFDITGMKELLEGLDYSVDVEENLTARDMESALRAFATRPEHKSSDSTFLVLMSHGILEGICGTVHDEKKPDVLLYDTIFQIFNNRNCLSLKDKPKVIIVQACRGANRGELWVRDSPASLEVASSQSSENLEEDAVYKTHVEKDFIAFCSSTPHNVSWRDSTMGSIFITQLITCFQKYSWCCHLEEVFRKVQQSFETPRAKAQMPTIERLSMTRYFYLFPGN
Assay: Inhibition of human recombinant N-terminal His-tagged DTT-activated caspase-4 expressed in Escherichia coli using Ac-LEVD-AMC as substrate preincubated for 30 mins followed by substrate addition by fluorescence assay
Conditions: not given

SMILES | pIC50 | pKi
C[C@]12C=CC(=O)C=C1CC[C@@H]1C2=CC[C@]2(C)[C@@H](C(=O)CN3CCN(c4cc(N5CCCC5)nc(N5CCCC5)n4)CC3)CC[C@@H]12 | 6.04 | 6.47
c1cncc(CN2CCN(c3cc(N4CCCC4)nc(N4CCCC4)n3)CC2)c1 | 5.63 | 6.06
FC(F)(F)c1cc(CN2CCN(c3cc(N4CCCC4)nc(N4CCCC4)n3)CC2)cc(C(F)(F)F)c1 | < 5.30 | –
O=[N+]([O-])c1ccccc1CN1CCN(c2cc(N3CCCC3)nc(N3CCCC3)n2)CC1 | 6.14 | 6.57
c1c(N2CCCC2)nc(N2CCCC2)nc1N1CCNCC1 | 6.25 | 6.68
c1ccc(CN2CCN(c3cc(N4CCCC4)nc(N4CCCC4)n3)CC2)cc1 | < 5.30 | –
COc1cccc(CN2CCN(c3cc(N4CCCC4)nc(N4CCCC4)n3)CC2)c1 | 6.13 | 6.56
COc1cc(CN2CCN(c3cc(N4CCCC4)nc(N4CCCC4)n3)CC2)cc(OC)c1 | 6.40 | 6.83
c1ccc(CCN2CCN(c3cc(N4CCCC4)nc(N4CCCC4)n3)CC2)cc1 | 7.68 | 8.10
c1cc(CN2CCN(c3cc(N4CCCC4)nc(N4CCCC4)n3)CC2)ccn1 | 5.97 | 6.41
FC(F)(F)c1ccc(CN2CCN(c3cc(N4CCCC4)nc(N4CCCC4)n3)CC2)cc1 | 5.82 | 6.25
O=C(c1ccccc1)c1ccc(CN2CCN(c3cc(N4CCCC4)nc(N4CCCC4)n3)CC2)cc1 | 6.49 | 6.92
c1c(N2CCCC2)nc(N2CCCC2)nc1N1CCN(CC2CCCCC2)CC1 | 6.08 | 6.51
O=[N+]([O-])c1ccc(CN2CCN(c3cc(N4CCCC4)nc(N4CCCC4)n3)CC2)cc1 | 6.24 | 6.67

Target: T2, Caspase-5
Assay: Inhibition of human recombinant DTT-activated caspase-5 expressed in Escherichia coli using Ac-WEHD-AMC as substrate preincubated for 45 mins followed by substrate addition by fluorescence assay
Conditions: not given

SMILES | pIC50
c1cncc(CN2CCN(c3cc(N4CCCC4)nc(N4CCCC4)n3)CC2)c1 | 6.81
